Experimental data: US8778966B2, “Quinolinone derivatives as PARP and tank inhibitors” (Janssen Pharmaceutica, NV, priority 2007, dated 2014)

Experiments:
HCT116 cells = assay: Antiproliferative activity, Alamar Blue assay, HCT116 cells; format: cell-based, human; design: key to HCT116 antiproliferative activity pIC50: pIC50 = -log IC50 (IC50: conc. reducing growth to 50% of control); conditions: for IC50: Homo sapiens, HCT-116, HCT116 cells, read-out: HCT116 antiproliferative activity pIC50 (converted); for HCT116 antiproliferative activity pIC50: HCT116 cells
In short: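 Readout is resazurin fluorescence (ex 540, em 590 nm) after a 4 h dye incubation at 37 °C, following 4-day compound treatment of HCT116 cells plated 24 h earlier. Results expressed as % viable cells versus untreated; pIC50 derived from probit-fitted IC50.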

PC3 cells = assay: EB1 Comet (microtubule disruption) assay; format: cell-based, human; conditions: 1 hour treatment; for minimal effective concentration: Homo sapiens, PC-3, 1 h, read-out: EB1 pLAC (converted)
In short: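 Readout is loss of Eb1 plus-end foci, scored by immunofluorescence microscopy, in PC3 cells after 1 h compound treatment at 37 °C with 0.6% final DMSO. LAC is defined as the lowest concentration leaving at least 50% of cells without Eb1 foci.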

tubulin = assay: Tubulin polymerization assay; format: biochemical; design: key: a compound showing 0 to 50% inhibition at 20 μM is reported as score 1; Score 2 compounds are defined as compound showing more than 50% inhibition at 20 μM and less than 50% inhibition at 5 μM; a compound showing more than 50% inhibition at 5 μM is reported as score 3; conditions: tested at 20 μM and 5 μM
Method: The tubulin polymerization assay is an adaptation of an assay originally described by Bonne, D. et al. (J. Biol. Chem., 1985, 260:2819-25). The assay kit was purchased from Cytoskeleton, Inc. (catalogue number BK011) and the assay was performed as described by the supplier with the following modifications. The assay was run in a 384-well black Proxiplate (Perkin Elmer) and volumes were adapted accordingly. The reactions were carried out in a final volume of 10 μl. Compounds were added to 25 μl of the reaction mix in 96-well PP plates (Corning) on ice and 10 μl of this mixture was dispensed into duplicates of the 384-well Proxiplates pre-warmed to 37° C. in a Fluoroskan Ascent plate reader (Thermo Scientific). Fluorescence measurements were taken every minute for one hour. The maximum slope of each well was determined (linear regression through 4 consecutive points) and polymerization was calculated as a percentage of polymerization observed in the absence of compound. Compounds were first measured at a concentration of 20 μM and then at 5 μM for those showing more than 50% inhibition at 20 μM as compared to the polymerization observed in the absence of compound. Results are reported in Table F-2 as scores defined as: a compound showing 0 to 50% inhibition at 20 μM is reported as score 1; a compound showing more than 50% inhibition at 5 μM is reported as score 3.

| Structure (SMILES) | IC50 (HCT116 cells) [nM] | HCT116 antiproliferative activity pIC50 (HCT116 cells) | minimal effective concentration (PC3 cells) [µM] | EB1 pLAC (PC3 cells) | tubulin polymerisation score (tubulin) |
| --- | --- | --- | --- | --- | --- |
| CCc1cc2ccc(C(C)(C#N)C3CCc4ccc(Br)cc43)cc2[nH]c1=O (single isomer, unassigned) [Compound 380] | – | 5.7 | – | 6 | – |
| CCc1cc2ccc(C(C)(C#N)C3CCc4ccc(Br)cc43)cc2[nH]c1=O (single isomer, unassigned) [Compound 381] | – | 7.3 | – | 7 | – |
| Cc1cc2ccc([C@](C)(C#N)C3CCc4cccnc43)cc2[nH]c1=O (single isomer, unassigned) [Compound 388] | 6310 | – | > 10 | – | – |
| CCc1cc2ccc([C@](C)(C#N)[C@H]3CCOc4ccccc43)cc2[nH]c1=O (single isomer, unassigned) [Compound 394] | 7940 | – | 3.16 | – | 1 (a compound showing 0 to 50% inhibition at 20 μM is reported as score 1) |
| CCc1cc2ccc([C@@](C)(C#N)[C@H]3CCOc4ccccc43)cc2[nH]c1=O (single isomer, unassigned) [Compound 395] | 631 | – | 0.316 | – | 2 |
| Cc1cc2ccc(C(C)(C#N)Cc3cccc(Oc4ncccn4)c3)cc2[nH]c1=O (stereo not drawn) [Compound 191] | 251 | – | 0.316 | – | – |
| Cc1cc2ccc(C(C)(C#N)Cc3cccc(Oc4ccccc4)n3)cc2[nH]c1=O (stereo not drawn) [Compound 193] | 398 | – | 0.1 | – | – |
| CCc1cc2ccc(C(C)(C#N)CCOc3nccc(OC)n3)cc2[nH]c1=O (stereo not drawn) [Compound 223] | 3980 | – | 1 | – | – |
| Cc1cc2ccc([C@@](C)(C#N)[C@@H]3CCc4cc(Br)ccc43)cc2[nH]c1=O [Compound 240] | 10000 | – | > 10 | – | – |
| Cc1cc2ccc([C@@](C)(C#N)[C@H]3CCc4cc(Br)ccc43)cc2[nH]c1=O [Compound 241] | 501 | – | 0.316 | – | – |
| Cc1cc2ccc([C@](C)(C#N)[C@@H]3CCc4cc(Br)ccc43)cc2[nH]c1=O [Compound 242] | 50.1 | – | 0.1 | – | – |
| Cc1cc2ccc(C(C)(C#N)C3CCc4cc(Br)ccc43)cc2[nH]c1=O (stereo not drawn) [Compound 244] | – | 6.8 | – | 7 | – |
| C=C(C)c1cccc(CC(C)(C#N)c2ccc3cc(CC)c(=O)[nH]c3c2)c1 (stereo not drawn) [Compound 254] | 501 | – | 1 | – | – |
| CCc1cc2ccc(C(C#N)(CC)Cc3cccc(C#N)c3)cc2[nH]c1=O (stereo not drawn) [Compound 265] | 501 | – | 1 | – | 2 |
| CCc1cc2ccc(C(C)(C#N)Cc3cc(F)cc(C#N)c3)cc2[nH]c1=O (stereo not drawn) [Compound 266] | 200 | – | 0.316 | – | 3 (a compound showing more than 50% inhibition at 5 μM is reported as score 3) |
| Cc1cc2ccc(C(C)(C#N)CCCCOc3ccccc3)cc2[nH]c1=O (stereo not drawn) [Compound 272] | 2000 | – | 1 | – | – |
| Cc1cc2ccc(C(C)(C#N)Cc3cc(F)cc(F)c3)cc2[nH]c1=O (stereo not drawn) [Compound 282] | 398 | – | 3.16 | – | – |
| CCc1cc2ccc(C(C)(C#N)Cc3cc(C)cc(Br)c3)cc2[nH]c1=O (stereo not drawn) [Compound 284] | 158 | – | 0.316 | – | – |
| CCc1cc2ccc(C(C#N)(CC)Cc3cccc(OC)c3)cc2[nH]c1=O (stereo not drawn) [Compound 287] | 1260 | – | 0.316 | – | 2 |
| CCc1cc2ccc(C(C)(C#N)CN(C)CCc3cn(C)c4ccccc34)cc2[nH]c1=O (stereo not drawn) [Compound 303] | 1580 | – | 10 | – | – |
| Cc1cc2ccc(C(C)(C#N)Cc3cccc(Oc4ccccn4)c3)cc2[nH]c1=O (stereo not drawn) [Compound 304] | 251 | – | 0.1 | – | – |
| CCc1cc2ccc(C(C#N)(CC)Cc3nc(C#N)cc(OC)n3)cc2[nH]c1=O (stereo not drawn) [Compound 316] | 631 | – | 3.16 | – | 2 |
| CCc1cc2ccc(C(C)(C#N)Cc3cc(C)nc(Cl)c3)cc2[nH]c1=O (stereo not drawn) [Compound 326] | 794 | – | 3.16 | – | – |
| CCc1cc2ccc([C@](C)(C#N)Cc3cc(F)cc(F)c3)cc2[nH]c1=O [Compound 333] | 10000 | – | 10 | – | 1 (a compound showing 0 to 50% inhibition at 20 μM is reported as score 1) |
| CCc1cc2ccc(C(C)(C#N)CCOc3ccnc(SC)n3)cc2[nH]c1=O (stereo not drawn) [Compound 348] | 3160 | – | 10 | – | – |
| CCc1cc2ccc(C(C)(C#N)CN3CCN(c4ncc(Br)cn4)CC3)cc2[nH]c1=O (stereo not drawn) [Compound 374] | 501 | – | – | – | 2 |
| CCc1cc2ccc(C(C#N)(CC)C3CCc4ccc(OC)cc43)cc2[nH]c1=O (stereo not drawn) [Compound 403] | 158 | – | – | – | – |
| Cc1cc2ccc([C@](C)(C#N)[C@H]3CCc4ccc(Br)cc43)cc2[nH]c1=O [Compound 407] | 631 | – | – | – | – |

Continued, in another order:

| IC50 (HCT116 cells) [nM] | HCT116 antiproliferative activity pIC50 (HCT116 cells) | Structure (SMILES) | minimal effective concentration (PC3 cells) [µM] | EB1 pLAC (PC3 cells) | tubulin polymerisation score (tubulin) |
| --- | --- | --- | --- | --- | --- |
| 6310 | – | Cc1cc2ccc(C(C)(C#N)C3CCc4c(C#N)cccc43)cc2[nH]c1=O (racemic) [Compound 393] | 10 | – | – |
| 200 | – | CCC(=O)c1cccc(CC(C)(C#N)c2ccc3cc(C)c(=O)[nH]c3c2)c1 (stereo not drawn) [Compound 173] | 0.316 | – | 3 (a compound showing more than 50% inhibition at 5 μM is reported as score 3) |
| 3160 | – | CCc1cnc(OCCC(C)(C#N)c2ccc3cc(CC)c(=O)[nH]c3c2)nc1 (stereo not drawn) [Compound 222] | 10 | – | – |
| 501 | – | Cc1cc2ccc(C(C)(C#N)Cc3cccc(C#N)n3)cc2[nH]c1=O (stereo not drawn) [Compound 227] | 1 | – | – |
| 501 | – | Cc1cc2ccc(C(C)(C#N)C3CCc4c(Br)cccc43)cc2[nH]c1=O (stereo not drawn) [Compound 248] | 0.316 | – | – |
| 158 | – | Cc1cc2ccc(C(C)(C#N)C3CCc4ccc(Br)cc43)cc2[nH]c1=O (stereo not drawn) [Compound 249] | 0.178 | – | 2 |
| 200 | – | Cc1cc2ccc(C(C)(C#N)C3CCc4ccc(C#N)cc43)cc2[nH]c1=O (stereo not drawn) [Compound 250] | 0.316 | – | – |
| 1580 | – | CCc1cc2ccc(C(C#N)(CC)Cc3cccc(F)c3)cc2[nH]c1=O (stereo not drawn) [Compound 270] | 3.16 | – | – |
| 501 | – | CCOc1cc(N(C)C)nc(CC(C)(C#N)c2ccc3cc(CC)c(=O)[nH]c3c2)n1 (stereo not drawn) [Compound 312] | 1 | – | – |
| 631 | – | CCOc1cc(C#N)nc(CC(C)(C#N)c2ccc3cc(CC)c(=O)[nH]c3c2)n1 (stereo not drawn) [Compound 315] | 1 | – | 2 |
| 316 | – | CCc1cc2ccc(C(C#N)(CC)Cc3nc(OC)cc(OC)n3)cc2[nH]c1=O (stereo not drawn) [Compound 321] | 0.316 | – | 2 |
| 3160 | – | CCc1cc2ccc(C(C)(C#N)Cc3ccnc(C#N)c3)cc2[nH]c1=O (stereo not drawn) [Compound 324] | 1 | – | 1 (a compound showing 0 to 50% inhibition at 20 μM is reported as score 1) |
| 501 | – | CCc1cc2ccc(C(C)(C#N)Cc3cc(C)nc(C#N)c3)cc2[nH]c1=O (stereo not drawn) [Compound 328] | – | – | 2 |
| 5010 | – | CCc1cc2ccc(C(C)(C#N)Cc3ccnc(F)c3)cc2[nH]c1=O (stereo not drawn) [Compound 330] | – | – | – |
| 631 | – | CCc1cc2ccc(C(C)(C#N)Cc3cccc(F)n3)cc2[nH]c1=O (stereo not drawn) [Compound 331] | 0.1 | – | 2 |
| 2510 | – | CCc1cc2ccc(C(C)(C#N)Cc3ccnc(Cl)c3)cc2[nH]c1=O (stereo not drawn) [Compound 341] | 10 | – | – |
| 5010 | – | Cc1cc2ccc([C@@](C)(C#N)[C@@H]3CCCc4ccccc43)cc2[nH]c1=O [Compound 382] | – | – | – |
| 631 | – | CCc1cc2ccc(C(C#N)(CC)Cc3cccc(CN)c3)cc2[nH]c1=O (stereo not drawn) [Compound 390] | – | – | – |
| 50.1 | – | Cc1cc2ccc([C@@](C)(C#N)[C@H]3CCc4ccc(Br)cc43)cc2[nH]c1=O [Compound 405] | – | – | – |
| 10000 | – | Cc1cc2ccc([C@](C)(C#N)[C@@H]3CCc4ccc(Br)cc43)cc2[nH]c1=O [Compound 406] | – | – | – |
